Measurements from publication PMC12029836, “Phytotoxicity, Cytotoxicity, and Antimicrobial Activity of Triethanolammonium Amino Acids Salts” (Molecules, 2025).
Where “and” joins values, the source holds several entries; their conditions need not be identical. Identical values can stand only once. Like-named read-outs stand apart in the source and are kept apart here.

What was measured:
S. aureus ATCC 6538 = test: Antimicrobial activity, broth microdilution MIC/MBC; assay type: cell-based, Staphylococcus aureus; details: nd—not detected
[1] = system: Lepidium sativum L. seeds; details: 24 h incubation, mean(±SD), n = 3
[2] = system: Lepidium sativum L. roots; details: 24 h incubation, mean(±SD), n = 3
E. coli ATCC 8739 = test: Antimicrobial activity, broth microdilution MIC/MBC; assay type: cell-based, Escherichia coli; details: nd—not detected; for MIC (%): E. coli ATCC 8739, 24 h at 37 °C, at least 90% growth inhibition
C. albicans ATCC 10231 = test: as above; assay type: cell-based, Candida albicans; details: C. albicans ATCC 10231, 24 h at 37 °C, at least 90% growth inhibition; nd—not detected
L929 fibroblasts = test: Mammalian cell cytotoxicity screening, resazurin viability; assay type: cell-based, mouse
[3] = 0.01% (w/w) compound in the medium
[4] = 0.03% (w/w) compound in the medium
[5] = 0.05% (w/w) compound in the medium
[6] = 0.10% (w/w) compound in the medium
[7] = 0.30% (w/w) compound in the medium
[8] = 0.50% (w/w) compound in the medium
[9] = 1.00% (w/w) compound in the medium
[10] = 2.00% (w/w) compound in the medium
[11] = 3.00% (w/w) compound in the medium
[12] = 4.00% (w/w) compound in the medium
[13] = 5.00% (w/w) compound in the medium

N=C(N)NCCC[C@H](N)C(=O)O.OCCN(CCO)CCO [[TEA][Arg]]
MIC (%) (S. aureus ATCC 6538; S. aureus ATCC 6538, 24 h at 37 °C, at least 90% growth inhibition): 3.75%
MBC (%) (S. aureus ATCC 6538; S. aureus ATCC 6538): 3.75%
Inhibition of the Lepidium sativum seeds germination (ISG, %) [1, 3]: 0.0(±0.0) %
Inhibition of the Lepidium sativum seeds germination (ISG, %) [1, 4]: 0.0(±0.0) %
Inhibition of the Lepidium sativum seeds germination (ISG, %) [1, 5]: 0.0(±0.0) %
Inhibition of the Lepidium sativum seeds germination (ISG, %) [1, 6]: 0.0(±0.0) %
Inhibition of the Lepidium sativum seeds germination (ISG, %) [1, 7]: 1.2(±0.8) %
Inhibition of the Lepidium sativum seeds germination (ISG, %) [1, 8]: 5.5(±0.5) %
Inhibition of the Lepidium sativum seeds germination (ISG, %) [1, 9]: 15.5(±0.5) %
Inhibition of the Lepidium sativum seeds germination (ISG, %) [1, 10]: 25.5(±2.1) %
Inhibition of the Lepidium sativum seeds germination (ISG, %) [1, 11]: 32.7%
Inhibition of the Lepidium sativum seeds germination (ISG, %) [1, 12]: 58.2(±1.2) %
Inhibition of the root growth in pregerminated Lepidium sativum seeds (IRG, %) [2, 3]: 9.0(±1.9) %
Inhibition of the root growth in pregerminated Lepidium sativum seeds (IRG, %) [2, 4]: 20.6(±1.8) %
Inhibition of the root growth in pregerminated Lepidium sativum seeds (IRG, %) [2, 5]: 31.2(±1.9) %
Inhibition of the root growth in pregerminated Lepidium sativum seeds (IRG, %) [2, 6]: 41.9(±1.3) %
Inhibition of the root growth in pregerminated Lepidium sativum seeds (IRG, %) [2, 7]: 53.8(±1.3) %
Inhibition of the root growth in pregerminated Lepidium sativum seeds (IRG, %) [2, 8]: 56.5(±1.4) %
Inhibition of the root growth in pregerminated Lepidium sativum seeds (IRG, %) [2, 9]: 65.4(±1.0) %
Inhibition of the root growth in pregerminated Lepidium sativum seeds (IRG, %) [2, 10]: 74.4(±0.7) %
Inhibition of the root growth in pregerminated Lepidium sativum seeds (IRG, %) [2, 11]: 84.7(±0.6) %
Inhibition of the root growth in pregerminated Lepidium sativum seeds (IRG, %) [2, 12]: 93.7(±0.5) %
Inhibition of the root growth in pregerminated Lepidium sativum seeds (IRG, %) [2, 13]: 98.3(±0.3) %
MIC (%) (E. coli ATCC 8739): 3.75%
MBC (%) (E. coli ATCC 8739; E. coli ATCC 8739): 3.75%
MIC (%) (C. albicans ATCC 10231): 0.94%

CSCC[C@H](N)C(=O)O.OCCN(CCO)CCO [[TEA][Met]]
ED20 (L929 fibroblasts; 24h exposure): 0.08±0.01%
ED50 (L929 fibroblasts; 24h exposure): 0.29±0.02% and 0.29%
ED80 (L929 fibroblasts; 24h exposure): 0.74±0.08%
ED20 (L929 fibroblasts; 48h exposure): 0.09±0.01%
ED50 (L929 fibroblasts; 48h exposure): 0.31±0.02%
ED80 (L929 fibroblasts; 48h exposure): 0.78±0.06%
Inhibition of the Lepidium sativum seeds germination (ISG, %) [1, 3]: 0.0(±0.2) %
Inhibition of the Lepidium sativum seeds germination (ISG, %) [1, 4]: 0.0(±0.1) %
Inhibition of the Lepidium sativum seeds germination (ISG, %) [1, 5]: 0.0(±0.1) %
Inhibition of the Lepidium sativum seeds germination (ISG, %) [1, 6]: 0.0(±0.1) %
Inhibition of the Lepidium sativum seeds germination (ISG, %) [1, 7]: 0.0(±0.0) %
Inhibition of the Lepidium sativum seeds germination (ISG, %) [1, 8]: 1.9(±1.3) %
Inhibition of the Lepidium sativum seeds germination (ISG, %) [1, 9]: 3.7(±0.5) %
Inhibition of the Lepidium sativum seeds germination (ISG, %) [1, 10]: 7.4(±0.9) %
Inhibition of the Lepidium sativum seeds germination (ISG, %) [1, 12]: 29.6(±0.8) %
Inhibition of the Lepidium sativum seeds germination (ISG, %) [1, 13]: 37.0(±2.5) %
Inhibition of the root growth in pregerminated Lepidium sativum seeds (IRG, %) [2, 3]: 0.0(±0.0) %
Inhibition of the root growth in pregerminated Lepidium sativum seeds (IRG, %) [2, 4]: 0.0(±0.0) %
Inhibition of the root growth in pregerminated Lepidium sativum seeds (IRG, %) [2, 5]: 0.0(±0.0) %
Inhibition of the root growth in pregerminated Lepidium sativum seeds (IRG, %) [2, 7]: 22.8(±3.3) %
Inhibition of the root growth in pregerminated Lepidium sativum seeds (IRG, %) [2, 8]: 30.1(±3.8) %
Inhibition of the root growth in pregerminated Lepidium sativum seeds (IRG, %) [2, 9]: 52.1(±2.2) %
Inhibition of the root growth in pregerminated Lepidium sativum seeds (IRG, %) [2, 10]: 60.7(±2.0) %
Inhibition of the root growth in pregerminated Lepidium sativum seeds (IRG, %) [2, 11]: 64.9(±1.4) %
Inhibition of the root growth in pregerminated Lepidium sativum seeds (IRG, %) [2, 12]: 77.4(±1.3) %
Inhibition of the root growth in pregerminated Lepidium sativum seeds (IRG, %) [2, 13]: 77.8(±0.9) %
MIC (%) (C. albicans ATCC 10231): 5.00%

CC(O)C(N)C(=O)O.OCCN(CCO)CCO [[TEA][Thr]]
ED20 (L929 fibroblasts; 24h exposure): 0.40±0.09%
ED50 (L929 fibroblasts; 24h exposure): 0.57±0.03%
ED80 (L929 fibroblasts; 24h exposure): 0.73±0.14%
ED20 (L929 fibroblasts; 48h exposure): 0.26±0.03%
ED50 (L929 fibroblasts; 48h exposure): 0.38±0.02%
ED80 (L929 fibroblasts; 48h exposure): 0.50±0.03%
Inhibition of the Lepidium sativum seeds germination (ISG, %) [1, 3]: 0.0(±0.0) %
Inhibition of the Lepidium sativum seeds germination (ISG, %) [1, 4]: 3.8(±0.1) %
Inhibition of the Lepidium sativum seeds germination (ISG, %) [1, 5]: 6.7(±0.8) %
Inhibition of the Lepidium sativum seeds germination (ISG, %) [1, 6]: 11.3(±1.7) %
Inhibition of the Lepidium sativum seeds germination (ISG, %) [1, 7]: 15.1(±0.8) %
Inhibition of the Lepidium sativum seeds germination (ISG, %) [1, 8]: 16.8(±0.9) %
Inhibition of the Lepidium sativum seeds germination (ISG, %) [1, 9]: 18.9(±1.7) %
Inhibition of the Lepidium sativum seeds germination (ISG, %) [1, 10]: 21.7(±0.8) %
Inhibition of the Lepidium sativum seeds germination (ISG, %) [1, 12]: 45.3(±2.1) %
Inhibition of the root growth in pregerminated Lepidium sativum seeds (IRG, %) [2, 3]: 0.0(±0.0) %
Inhibition of the root growth in pregerminated Lepidium sativum seeds (IRG, %) [2, 4]: 17.7(±2.3) %
Inhibition of the root growth in pregerminated Lepidium sativum seeds (IRG, %) [2, 5]: 19.7(±2.4) %
Inhibition of the root growth in pregerminated Lepidium sativum seeds (IRG, %) [2, 6]: 21.8(±1.9) %
Inhibition of the root growth in pregerminated Lepidium sativum seeds (IRG, %) [2, 7]: 37.8%
Inhibition of the root growth in pregerminated Lepidium sativum seeds (IRG, %) [2, 8]: 66.6(±1.3) %
Inhibition of the root growth in pregerminated Lepidium sativum seeds (IRG, %) [2, 9]: 73.7(±1.0) %
Inhibition of the root growth in pregerminated Lepidium sativum seeds (IRG, %) [2, 10]: 80.3(±0.9) %
Inhibition of the root growth in pregerminated Lepidium sativum seeds (IRG, %) [2, 11]: 88.0(±0.8) %
Inhibition of the root growth in pregerminated Lepidium sativum seeds (IRG, %) [2, 12]: 92.7(±0.6) %
Inhibition of the root growth in pregerminated Lepidium sativum seeds (IRG, %) [2, 13]: 96.2(±0.5) %
MIC (%) (E. coli ATCC 8739): 7.50%
MIC (%) (C. albicans ATCC 10231): 3.75%

N[C@@H](Cc1c[nH]cn1)C(=O)O.OCCN(CCO)CCO [[TEA][His]]
Inhibition of the Lepidium sativum seeds germination (ISG, %) [1, 3]: 0.0(±0.0) %
Inhibition of the Lepidium sativum seeds germination (ISG, %) [1, 4]: 1.9(±0.5) %
Inhibition of the Lepidium sativum seeds germination (ISG, %) [1, 5]: 3.7(±0.9) %
Inhibition of the Lepidium sativum seeds germination (ISG, %) [1, 6]: 5.6(±0.5) %
Inhibition of the Lepidium sativum seeds germination (ISG, %) [1, 7]: 7.4(±0.5) %
Inhibition of the Lepidium sativum seeds germination (ISG, %) [1, 8]: 9.3(±0.5) %
Inhibition of the Lepidium sativum seeds germination (ISG, %) [1, 9]: 12.0(±1.4) %
Inhibition of the Lepidium sativum seeds germination (ISG, %) [1, 10]: 14.8(±0.9) %
Inhibition of the Lepidium sativum seeds germination (ISG, %) [1, 11]: 25.9(±1.2) %
Inhibition of the Lepidium sativum seeds germination (ISG, %) [1, 12]: 27.8(±2.8) %
Inhibition of the Lepidium sativum seeds germination (ISG, %) [1, 13]: 74.1(±0.5) %
Inhibition of the root growth in pregerminated Lepidium sativum seeds (IRG, %) [2, 3]: 1.1(±2.2) %
Inhibition of the root growth in pregerminated Lepidium sativum seeds (IRG, %) [2, 4]: 12.9(±2.1) %
Inhibition of the root growth in pregerminated Lepidium sativum seeds (IRG, %) [2, 5]: 15.7(±2.2) %
Inhibition of the root growth in pregerminated Lepidium sativum seeds (IRG, %) [2, 6]: 22.1(±2.1) %
Inhibition of the root growth in pregerminated Lepidium sativum seeds (IRG, %) [2, 7]: 28.6%
Inhibition of the root growth in pregerminated Lepidium sativum seeds (IRG, %) [2, 8]: 37.1(±2.0) %
Inhibition of the root growth in pregerminated Lepidium sativum seeds (IRG, %) [2, 9]: 48.6(±1.6) %
Inhibition of the root growth in pregerminated Lepidium sativum seeds (IRG, %) [2, 10]: 62.9(±1.2) %
Inhibition of the root growth in pregerminated Lepidium sativum seeds (IRG, %) [2, 11]: 72.9(±0.9) %
Inhibition of the root growth in pregerminated Lepidium sativum seeds (IRG, %) [2, 12]: 80.0(±0.8) %
Inhibition of the root growth in pregerminated Lepidium sativum seeds (IRG, %) [2, 13]: 84.3(±0.7) %
MIC (%) (C. albicans ATCC 10231): 2.50%
